In the NIST ThermoML archive (doi:10.1021/je900093h):

Assay: molar heat capacity at saturation pressure
Conditions: Crystal, Vacuum adiabatic calorimetry

CCCCCCCCCC(=O)OCC [ethyl decanoate]
Conditions | molar heat capacity [J/K/mol]
5.07 K | 0.5226
5.31 K | 0.6118
5.56 K | 0.7121
5.81 K | 0.825
6.07 K | 0.9558
6.36 K | 1.118
6.69 K | 1.318
7.02 K | 1.545
7.35 K | 1.796
7.7 K | 2.073
8.04 K | 2.376
8.4 K | 2.709
8.76 K | 3.071
9.12 K | 3.453
9.48 K | 3.859
9.85 K | 4.299
10.32 K | 4.888
10.9 K | 5.635
11.48 K | 6.424
12.07 K | 7.27
12.66 K | 8.157
13.26 K | 9.088
13.87 K | 10.03
14.47 K | 11.01
15.09 K | 12.05
15.81 K | 13.35
16.64 K | 14.88
17.48 K | 16.38
18.32 K | 17.92
19.16 K | 19.47
20.01 K | 21.05
21.18 K | 23.32
22.7 K | 26.32
24.23 K | 29.4
25.75 K | 32.51
27.29 K | 35.64
28.39 K | 37.87
29.64 K | 40.42
31.35 K | 43.96
33.22 K | 47.77
35.1 K | 51.55
36.98 K | 55.32
38.87 K | 59.03
40.75 K | 62.74
42.73 K | 66.71
44.82 K | 70.83
46.9 K | 74.94
49 K | 78.99
51.09 K | 82.94
53.19 K | 86.89
55.3 K | 90.74
57.4 K | 94.51
59.52 K | 98.2
61.64 K | 101.8
63.76 K | 105.3
65.89 K | 108.8
68.01 K | 112.1
70.14 K | 115.4
72.38 K | 118.9
74.72 K | 122.4
77.07 K | 125.9
79.44 K | 129.4
80.12 K | 130.3
81.8 K | 132.9
81.98 K | 133
83.85 K | 135.7
84.15 K | 136.2
85.73 K | 138.3
87.62 K | 141
89.51 K | 143.6
91.41 K | 146.2
93.31 K | 148.8
95.22 K | 151.3
97.14 K | 153.8
99.06 K | 156.2
100.98 K | 158.7
102.91 K | 161
104.84 K | 163.3
106.77 K | 165.7
108.71 K | 167.9
110.66 K | 170
112.6 K | 172.2
114.55 K | 174.3
116.5 K | 176.4
118.46 K | 178.5
120.41 K | 180.4
122.37 K | 182.4
124.33 K | 184.3
126.29 K | 186.2
128.26 K | 188
130.23 K | 189.8
130.37 K | 189.7
132.19 K | 191.6
132.31 K | 191.5
134.17 K | 193.3
134.25 K | 193.3
136.14 K | 195.1
136.19 K | 195
138.12 K | 196.8
138.13 K | 196.6
140.08 K | 198.3
140.1 K | 198.4
142.02 K | 200
142.07 K | 200.1
143.97 K | 201.6
144.06 K | 201.8
145.92 K | 203.3
146.04 K | 203.6
147.87 K | 205
148.02 K | 205.3
149.82 K | 206.5
150 K | 206.9
151.77 K | 208.2
151.98 K | 208.5
153.72 K | 209.7
153.97 K | 210
155.68 K | 211.2
155.95 K | 211.5
157.63 K | 212.8
157.93 K | 213.2
159.59 K | 214.4
159.92 K | 214.8
161.55 K | 215.9
161.91 K | 216.3
163.5 K | 217.4
163.89 K | 217.8
165.46 K | 218.9
165.88 K | 219.2
167.42 K | 220.4
167.86 K | 220.8
169.38 K | 222
169.85 K | 222.3
171.34 K | 223.6
171.83 K | 223.9
173.3 K | 225.1
173.81 K | 225.6
175.26 K | 226.6
175.79 K | 227.1
177.23 K | 228.3
177.77 K | 228.7
179.19 K | 229.8
179.74 K | 230.3
180.73 K | 230.9
181.15 K | 231.3
181.61 K | 231.8
181.72 K | 232
182.71 K | 232.5
183.11 K | 233.1
183.59 K | 233.4
183.69 K | 233.6
184.69 K | 234.2
185.07 K | 234.7
185.57 K | 235.1
185.67 K | 235.2
186.66 K | 235.8
187.04 K | 236.4
187.54 K | 236.7
187.64 K | 236.8
188.63 K | 237.5
189 K | 238
189.52 K | 238.4
189.6 K | 238.5
190.6 K | 239.3
190.96 K | 239.7
191.49 K | 240
191.57 K | 240.2
191.61 K | 240.1
192.56 K | 240.9
192.93 K | 241.4
193.45 K | 241.6
193.53 K | 241.9
193.58 K | 241.8
194.53 K | 242.6
194.89 K | 243.1
195.42 K | 243.3
195.48 K | 243.5
195.54 K | 243.5
196.49 K | 244.4
196.85 K | 244.7
197.38 K | 245
197.44 K | 245.2
197.5 K | 245.2
198.44 K | 246.2
198.81 K | 246.5
199.33 K | 246.7
199.39 K | 247
199.46 K | 246.8
200.4 K | 247.8
200.77 K | 248.3
201.28 K | 248.3
201.35 K | 248.7
201.46 K | 248.6
202.35 K | 249.5
202.74 K | 249.9
203.24 K | 250.1
203.29 K | 250.4
203.52 K | 250.4
204.3 K | 251.3
